Experimental data: article PMC9356275, “A quantitative high-throughput screen identifies compounds that lower expression of the SCA2-and ALS-associated gene ATXN2” (The Journal of Biological Chemistry, 2022)
Like-named read-outs stand apart in the source and are kept apart here.

Assays:
ATXN2-luc [1] = test: MSSR pilot screen: ATXN2-luc luciferase assay (Bright-Glo) in H2 cells, single 10 μM dose; type: cell-based, human; details: H2 cells, single dose (title: 10 μM compound), overnight
[2] = Secondary assays: multiplexed cell viability (CellTiter-Fluor); details: human
Method: (§1) The values for H2 and S2 were used as replicates to calculate IC50s and to assess cell viability.
(§2) Compounds were plated at 2× concentrations in phenol red–free DMEM in 25 μl in 384-well plates with each compound dose plated in triplicate. An equal volume of S2, H2, or SC cells (24,000 cells/well) suspended in phenol red–free DMEM with 10% fetal bovine serum and 1× penicillin/streptomycin were added. Cells were grown 24 h and then assayed first by using the CellTiter-Fluor reagent (20 μl) followed by the addition of Bright-Glo (65 μl) luciferase assay, using a multimode plate reader (Beckman; DT880). Values were reported as the mean ± SD with n = 3. IC50s were determined by the Hill coefficient method using an online tool (https://www.aatbio.com/tools/ic50-calculator).

ATXN2-luc [3] = test: Secondary assays: ATXN2-luc in S2 and H2 cells, 12 doses, Bright-Glo; type: cell-based, human; details: summary data; for IC50: ATXN2-luc luciferase assays in H2 and S2 cells, 12 doses plus a zero dose, read-out: Mean IC50; for min ATXN2-luc (%): minimum ATXN2-luc signal over 12 doses, H2 and S2 cells
CMV-luc = test: Secondary assays: CMV-luc in SC cells, Bright-Glo; type: cell-based, human; details: minimum CMV-luc signal in SC cells over 12 doses; summary data
Method: as §2

S2, H2 or SC cells = test: in vitro
Method: as §1, §2

[4] = minimum viability, multiplexed CellTiter-Fluor, over 12 doses, summary data

Row | Compound | SD from mean (ATXN2-luc, Z-score) (ATXN2-luc [1]) [SD] | viability at 24 h [2] [%] | IC50 (ATXN2-luc [3]; Homo sapiens) [nM] | min ATXN2-luc (%) (ATXN2-luc [3]) | min SC luc (%) (CMV-luc) | min viability (%) (S2, H2 or SC cells) | IC50 (ATXN2-luc [3]) [nM] | min viability (%) (S2, H2 or SC cells; [4])
1 | CC[C@@]1(O)C(=O)OCc2c1cc1n(c2=O)Cc2cc3ccccc3nc2-1 [Camptothecine (S+)] | -5.283 | 92.1 | 40 | 14.3715 | 42.7084 | – | – | –
2 | O=c1[nH]c(=O)n([C@H]2C[C@H](O)[C@@H](CO)O2)cc1F [NCGC00023722-07, Floxuridine] | – | 97.9 | 166 | 25.6595 | 37.5061 | – | – | –
3 | N[C@@H](Cc1ccc(N(CCCl)CCCl)cc1)C(=O)O [NCGC00090757-05, Melphalan] | – | 89.3 | – | 44.8372 | 79.9664 | – | – | –
4 | C=CCNC1=C2C[C@@H](C)C[C@H](OC)[C@H](O)[C@@H](C)/C=C(\C)[C@H](OC(N)=O)[C@@H](OC)/C=C\C=C(/C)C(=O)NC(=CC1=O)C2=O [NCGC00163424-03, tanespimycin] | – | 83.6 | 442 | 23.7455 | 96.2287 | – | – | –
5 | COc1cc2ncn(-c3cc(OCc4ccccc4C(F)(F)F)c(C(N)=O)s3)c2cc1OC [NCGC00242217-04, GW843682X] | – | 75.5 | 9770 | 57.1311 | 87.9923 | – | – | –
6 | NC(=O)Nc1cc(-c2cccc(F)c2)sc1C(=O)N[C@H]1CCCNC1 [NCGC00242481-02, AZD7762] | – | 78.1 | – | – | – | – | – | –
7 | O=C(NC1CCNCC1)c1[nH]ncc1NC(=O)c1c(Cl)cccc1Cl [NCGC00263091-01, AT7519] | – | 50.3 | 162 | 14.5407 | 103.668 | – | – | –
8 | S=C(NCc1ccc2c(c1)OCO2)N1CCN(c2ncnc3c2oc2ccccc23)CC1 [NCGC00263158-01, MP470] | – | 87.7 | 3020 | 55.0637 | 74.2577 | – | – | –
9 | CNC(=O)c1cc(Oc2ccc(NC(=O)Nc3cc(C(C)(C)C)nn3-c3ccc4ncccc4c3)c(F)c2)ccn1 [NCGC00263172-01, DCC-2036] | – | 56.6 | 3730 | 27.0713 | 60.5803 | – | – | –
10 | C=CCn1c(=O)c2cnc(Nc3ccc(N4CCN(C)CC4)cc3)nc2n1-c1cccc(C(C)(C)O)n1 [NCGC00263183-01, MK 1775] | – | 77.9 | 343 | 21.7344 | 63.0447 | – | – | –
11 | O=C(O)c1ccc2c(c1)nc(Nc1cccc(Cl)c1)c1ccncc12 [NCGC00263192-02] | – | – | – | 45.6416 | 93.7801 | 77.6315 | 10200 | –
12 | C[C@@]12OC(=O)[C@]1([C@@H](O)[C@@H]1C=CCCC1)NC(=O)[C@H]2CCCl [NCGC00344630-01] | – | – | – | 16.5036 | 96.8804 | – | 1110 | 75.9573
13 | Cc1cc(Nc2cc(CN3CCOCC3)c3nc(C)c(Cc4ccc(Cl)cc4F)n3n2)n[nH]1 [NCGC00345461-02, LY2784544] | – | 81.6 | 21100 | 23.1503 | 67.1857 | – | – | –
14 | CN[C@@H]1CN(c2ccc3c(=O)c(C(=O)O)cn(-c4nccs4)c3n2)C[C@@H]1OC [NCGC00346437-01] | – | – | – | 15.1045 | 64.0102 | – | 488 | 71.6056
15 | C=CCNc1c(O)cc2c(O)c1C[C@@H](C)C[C@H](OC)[C@@H](O)[C@@H](C)C=C(C)[C@H](OC(N)=O)[C@@H](OC)C=CC=C(C)C(=O)N2 [NCGC00346438-01] | – | – | – | 24.2069 | 94.9947 | 91.4914 | 546 | –
16 | C[C@@H](Oc1ccc2[nH]nc(C=Cc3cnn(CCO)c3)c2c1)c1c(Cl)cncc1Cl [NCGC00346459-01] | – | – | – | 15.2562 | 64.272 | – | 1390 | 66.1226
17 | O=C1NC(=O)/C(=C/c2ccc3nccc(-c4ccncc4)c3c2)S1 [NCGC00346509-01, GSK 1059615] | – | 75.5 | 57500 | 51.4419 | 85.5514 | – | – | –
18 | CN(C)CCN1C(=O)c2cccc3cc(N)cc(c23)C1=O [NCGC00346513-01, amonafide] | – | 68.2 | 1840 | 21.7231 | 69.6561 | – | – | –
19 | Nc1ncnc2c1c(-c1cnc3[nH]ccc3c1)nn2C1CCCC1 [NCGC00346619-01, PP121] | – | – | – | 27.4759 | 78.0969 | – | 4160 | 50.3878
20 | O=c1[nH]c2ccc(Cl)cc2c(N[C@@H]2CN3CCC2CC3)c1-c1nc2ccccc2[nH]1 [NCGC00346626-01, CHIR-124] | – | – | – | 17.9767 | 69.3978 | – | 219 | 75.0552
21 | CC1(C)CC(=O)c2c(C(F)(F)F)nn(-c3ccc(C(N)=O)c(N[C@H]4CC[C@H](O)CC4)c3)c2C1 [NCGC00346633-01, SNX 2112] | – | 83.3 | – | – | 82.2819 | – | – | –
22 | CC1(C)CC(=O)c2c(C(F)(F)F)nn(-c3ccc(C(N)=O)c(NC4CCC(OC(=O)CN)CC4)c3)c2C1 (stereo not drawn) [NCGC00346640-01, PF 04929113] | – | – | – | 19.9722 | 69.7843 | 87.146 | 88 | –
23 | Cn1cc(-c2cnn3c(N)c(Br)c([C@H]4CCCNC4)nc23)cn1 [NCGC00346653-01] | – | – | – | 25.4941 | 91.5137 | – | 388 | 87.0431
24 | CNC(=O)c1nn(C)c2c1C(C)(C)Cc1cnc(Nc3ccc(N4CCN(C)CC4)cc3)nc1-2 [NCGC00346673-01, PHA-848125] | – | 74.4 | 436 | 15.8759 | 96.2246 | – | – | –
25 | CC(C)c1cc(C(=O)N2Cc3ccc(CN4CCN(C)CC4)cc3C2)c(O)cc1O [NCGC00346674-01, AT13387] | – | 90.6 | 178 | 22.3111 | 71.1894 | – | – | –
26 | CC(C)c1cc(-c2n[nH]c(=O)n2-c2ccc3c(ccn3C)c2)c(O)cc1O [NCGC00346678-01] | – | – | – | 17.7351 | 55.4123 | – | 30 | 77.8152
27 | CCc1c(O)cc(O)c(C(=O)c2ccc(OCCN3CCOCC3)c(OC)c2)c1CC(=O)N(CCOC)CCOC [NCGC00346685-01, KW-2478] | – | – | – | 23.9372 | 105.888 | 97.6731 | 587 | –
28 | O=C(Nc1cccc(Nc2ncc(Br)c(NCCc3cnc[nH]3)n2)c1)N1CCCC1 [NCGC00346687-01, BX-912] | – | – | – | 54.9395 | 100.351 | 84.397 | 8890 | –
29 | Oc1ccc(-c2ccc(-c3cc(Nc4cccc(CNC5CC5)c4)n[nH]3)cc2)c(O)c1 [NCGC00346954-01] | – | – | – | 20.2623 | 54.3112 | 61.7259 | 545 | –
